The record followed here is DBAASP.

Values after ≈ are worked out from the molar mass of the structure shown.

Some test systems named below: Pseudomonas aeruginosa 9; Enterobacter cloacae; Escherichia coli; Pseudomonas aeruginosa; Staphylococcus aureus; Bacillus subtilis.
Common to all, as to test: ≥ marks a high value that may be exact or a test limit, other limits are often not marked, values filed in µg/mL are converted to µM
The test system of test [1] is Staphylococcus sp. BCRC 10451.
The test system of test [2] is Pseudomonas aeruginosa 198.
Test [3] relates to Enterobacter cloacae 218R.
For test [4], the system named is Pseudomonas aeruginosa LES400.
Test [5] concerns Escherichia coli ESBL 64771.
Test [6] deals with Klebsiella pneumoniae ESBL 63575.
The test system of test [7] is Pseudomonas aeruginosa H1027.
Test [8] concerns Enterococcus faecalis f43559.
In test [9] the test system is Stenotrophomonas maltophilia ATCC 13637.
In test [10] the test system is Pseudomonas aeruginosa PAO1 H103.
Test [11] has as its system Pseudomonas aeruginosa 213.
Test [12] deals with Enterococcus faecium t62764.
Test [13] has as its system Enterococcus faecalis W61950.
Test [14] relates to Enterococcus faecalis ATCC 29212.
Test [15] relates to Staphylococcus aureus ATCC 25923.
Test [16] relates to Klebsiella pneumoniae ESBL 61962.
Test [17] relates to Staphylococcus aureus C623.
For test [18], the system named is Enterococcus faecium mic80.
Test [19] concerns Pseudomonas aeruginosa H1030.
Test [20] relates to Escherichia coli ESBL 63103.
The test system of test [21] is Escherichia coli ATCC 25922.
Test [22] relates to Candida albicans ATCC 20032.
Test [23] has as its system Bacillus subtilis ATCC 6633.
The test system of test [24] is Candida albicans NCTC 3179.
Test [25] has as its system Salmonella enterica subsp. enterica serovar Typhi.
The test system of test [26] is Pseudomonas aeruginosa ATCC 27853.
The subject of test [27] is Candida albicans ATCC 90028.

`CC[C@H](C)[C@H](NC(=O)[C@H](CCCCN)NC(=O)[C@@H]1CCCN1C(C)=O)C(=O)N[C@H](C(=O)N[C@@H](CO)C(=O)N[C@@H](CO)C(=O)N1CCC[C@H]1C(=O)N[C@@H](CC(C)C)C(=O)N[C@@H](Cc1ccccc1)C(=O)N[C@@H](CCCCN)C(=O)N[C@H](C(=O)N[C@@H](CC(C)C)C(=O)N[C@@H](CC(C)C)C(=O)N[C@@H](CO)C(=O)N[C@@H](C)C(=O)N[C@H](C(=O)NCC(=O)N[C@@H](CO)C(=O)N[C@@H](C)C(=O)N[C@@H](CC(C)C)C(=O)N[C@@H](CO)C(=O)N[C@@H](CO)C(=O)N[C@@H](CO)C(=O)NCC(=O)NCC(=O)N[C@@H](CCC(N)=O)C(=O)N[C@@H](CCC(=O)O)C(N)=O)C(C)C)[C@@H](C)O)[C@@H](C)CC` [PKIISSPLFKTLLSAVGSALSSSGGQE] registered an MIC in test [1] of no less than 37.4 µM.
In the case of `CC[C@H](C)[C@H](NC(=O)[C@H](CCCN=C(N)N)NC(=O)[C@H](C)NC(=O)[C@H](CC(C)C)NC(=O)[C@@H](N)CCCN=C(N)N)C(=O)N[C@H](C(=O)N[C@H](C(=O)N[C@H](C(=O)N[C@@H](CCCN=C(N)N)C(=O)N[C@H](C(=O)N[C@@H](C)C(=O)N[C@@H](CCCN=C(N)N)C(=O)O)C(C)C)[C@@H](C)CC)C(C)C)C(C)C` [RLARIVVIRVAR], the MIC is no less than 47.1 µM in [2]; 12 µM (≈ 17 µg/mL) in [3]; no less than 47.1 µM in [4]; 12 µM (≈ 17 µg/mL) in test [5]; no less than 95 µM in test [6]; 5.91 µM (≈ 8.4 µg/mL) in test [7]. Also, the MIC in test [8] was 23.9 µM (≈ 34 µg/mL); in test [9], 1.48 µM (≈ 2.1 µg/mL); in [10], 23.9 µM (≈ 34 µg/mL); in test [11], no less than 95 µM; in test [12], 1.48 µM (≈ 2.1 µg/mL); against Pseudomonas aeruginosa 9, no less than 95 µM. The MIC in test [13] is 23.9 µM (≈ 34 µg/mL); in [14], 5.91 µM (≈ 8.4 µg/mL); in [15], 12 µM (≈ 17 µg/mL); in test [16] it was no less than 95 µM; in test [17], 12 µM (≈ 17 µg/mL); in [18] it was 5.91 µM (≈ 8.4 µg/mL). Further, the MIC in test [19] was no less than 47.1 µM; in test [20], 12 µM (≈ 17 µg/mL).
On to `CC[C@H](C)[C@H](N)C(=O)N[C@@H](Cc1c[nH]c2ccccc12)C(=O)N[C@@H](Cc1c[nH]c2ccccc12)C(=O)N[C@@H](CCCCN)C(=O)N[C@@H](Cc1c[nH]c2ccccc12)C(=O)N[C@@H](CCCN=C(N)N)C(=O)N[C@@H](CCCN=C(N)N)C(=O)N[C@@H](Cc1c[nH]c2ccccc12)C(=O)N[C@H](C(=O)O)C(C)C` [IWWKWRRWV], for which the MIC in test [2] amounted to 6 µM (≈ 8.5 µg/mL); in test [3], 2.97 µM (≈ 4.2 µg/mL); in test [4] it was 6 µM (≈ 8.5 µg/mL); in test [5], 2.97 µM (≈ 4.2 µg/mL); in test [6] it was 6 µM (≈ 8.5 µg/mL); in test [7], 2.97 µM (≈ 4.2 µg/mL). For the same compound, the minimal inhibitory concentration (MIC) in [8] was determined as 24 µM (≈ 34 µg/mL); in [9], 0.777 µM (≈ 1.1 µg/mL); in [10], 2.97 µM (≈ 4.2 µg/mL); in [11] it was 24 µM (≈ 34 µg/mL); in test [12], 1.48 µM (≈ 2.1 µg/mL); against Pseudomonas aeruginosa 9 it was 24 µM (≈ 34 µg/mL). Further, the MIC in test [13] is 24 µM (≈ 34 µg/mL); in test [14], 12 µM (≈ 17 µg/mL); in test [15], 1.48 µM (≈ 2.1 µg/mL); in [16], no less than 48 µM; in [17], 1.48 µM (≈ 2.1 µg/mL); in test [18], 2.97 µM (≈ 4.2 µg/mL). Moreover, the MIC was found to be 24 µM (≈ 34 µg/mL) in test [19] and 12 µM (≈ 17 µg/mL) in test [20].
Take `CC[C@H](C)[C@H](NC(=O)CN)C(=O)NCC(=O)NCC(=O)N[C@@H](C)C(=O)N[C@@H](CC(C)C)C(=O)N[C@@H](CC(C)C)C(=O)N[C@@H](CO)C(=O)N[C@@H](C)C(=O)NCC(=O)N[C@@H](CCCCN)C(=O)N[C@@H](CO)C(=O)N[C@@H](C)C(=O)N[C@@H](CC(C)C)C(=O)N[C@@H](CCCCN)C(=O)NCC(=O)N[C@@H](CC(C)C)C(=O)N[C@@H](C)C(=O)N[C@@H](CCCCN)C(=O)NCC(=O)N[C@@H](CC(C)C)C(=O)N[C@@H](C)C(=O)N[C@@H](CCC(=O)O)C(=O)N[C@@H](Cc1cnc[nH]1)C(=O)N[C@@H](CC(C)C)C(N)=O` [GIGGALLSAGKSALKGLAKGLAEHL]: the MIC is greater than 42.9 µM in [21], no less than 42.9 µM in test [22], 8.06 µM (≈ 18.8 µg/mL) in [15] and no less than 42.9 µM in test [23].
`CC[C@H](C)[C@H](NC(=O)[C@H](CCCCN)NC(=O)[C@@H](NC(=O)[C@@H](NC(=O)[C@H](CC(N)=O)NC(=O)[C@H](CCC(=O)O)NC(=O)[C@H](CCC(=O)O)NC(=O)[C@H](CCC(N)=O)NC(=O)[C@@H](N)CCC(=O)O)C(C)C)C(C)C)C(=O)N[C@@H](CCC(N)=O)C(=O)N[C@@H](C)C(=O)N[C@@H](Cc1ccccc1)C(=O)N[C@@H](Cc1c[nH]c2ccccc12)C(=O)N[C@@H](CCCCN)C(=O)NCC(=O)N[C@@H](Cc1ccc(O)cc1)C(=O)N[C@@H](CCCCN)C(=O)N[C@@H](CCC(N)=O)C(=O)N[C@@H](CCCN=C(N)N)C(=O)N[C@@H](CCCCN)C(=O)N[C@@H](CCC(=O)O)C(=O)N[C@@H](Cc1ccc(O)cc1)C(=O)N[C@@H](CCSC)C(=O)O` [EQEENVVKIQAFWKGYKQRKEYM]: the values for the minimal inhibitory concentration (MIC) in test [21], in test [24] and in test [15] were 2.15 µM (≈ 6.3 µg/mL), 28.3 µM (≈ 83 µg/mL) and 32.1 µM (≈ 94 µg/mL), respectively.
Consider `CC[C@H](C)[C@H](NC(=O)CN)C(=O)NCC(=O)NCC(=O)N[C@@H](C)C(=O)N[C@@H](CC(C)C)C(=O)N[C@@H](CC(C)C)C(=O)N[C@@H](CO)C(=O)N[C@@H](C)C(=O)NCC(=O)N[C@@H](CCCCN)C(=O)N[C@@H](C)C(=O)N[C@@H](C)C(=O)N[C@@H](CC(C)C)C(=O)N[C@@H](CCCCN)C(=O)NCC(=O)N[C@@H](CC(C)C)C(=O)N[C@@H](C)C(=O)N[C@@H](CCCCN)C(=O)N[C@H](C(=O)N[C@@H](CC(C)C)C(=O)N[C@H](C(N)=O)C(C)C)C(C)C` [GIGGALLSAGKAALKGLAKVLV], for which the MIC in test [21] came out at 18.7 µM (≈ 37.5 µg/mL); in test [22], 9.37 µM (≈ 18.8 µg/mL); in test [15], 4.68 µM (≈ 9.4 µg/mL); in test [23] it was 4.68 µM (≈ 9.4 µg/mL).
With `CC(C)C[C@H](NC(=O)[C@H](CCCCN)NC(=O)[C@H](CCCN=C(N)N)NC(=O)[C@H](Cc1ccccc1)NC(=O)[C@H](Cc1ccccc1)NC(=O)[C@H](CCCCN)NC(=O)[C@H](CCCCN)NC(=O)[C@H](Cc1ccccc1)NC(=O)[C@H](CCCN=C(N)N)NC(=O)[C@H](CCCCN)NC(=O)[C@@H](N)C(C)C)C(=O)N[C@@H](CCCCN)C(=O)N[C@@H](CCCCN)C(=O)N[C@@H](CO)C(N)=O` [VKRFKKFFRKLKKS], the MIC against Enterobacter cloacae was no less than 139 µM; in test [21], 69.6 µM (≈ 128 µg/mL); in test [25], 17.4 µM (≈ 32 µg/mL); in the test with Escherichia coli it was 17.4 µM (≈ 32 µg/mL); against Pseudomonas aeruginosa it was 17.4 µM (≈ 32 µg/mL); in the test on Staphylococcus aureus, 69.6 µM (≈ 128 µg/mL). The MIC in test [26] is 69.6 µM (≈ 128 µg/mL); in test [15] it was 2.17 µM (≈ 4 µg/mL); in the test with Bacillus subtilis, no less than 34.8 µM; in test [27], no less than 69.6 µM.
